One assay deals with T1, BCL-2 (Homo sapiens, UniProt P10415).
T1 construct: purchased Cisbio 63ADK000CB01PEG
The assay is described as follows: HTRF BCL-2/BAK assay (Cisbio). The format is binding. Particulars: recombinant human Tag1-BCL-2 2 nM, Tag2-BAK 10 nM. How it is done:
Then the pre-mixed anti-Tag1-Eu^3+ and anti-tag2-XL665 were added to the plate and further incubated at room temperature for another 2 hours. The signals ([…]) were read on Envision 2104 instrument. The IC50 for each compound was derived from fitting the signal of 665/615 nM to the increasing compound concentration.
Using the above assays, the following compounds were tested.
A general note: Time-resolved FRET reads energy transfer from a long-lived donor to a nearby acceptor.

A further assay has as its system DOHH2 cells. The assay is described as follows: CellTiter-Glo cell proliferation assay, DOHH2 cells. The format is cell-based. Particulars: Homo sapiens, DOHH-2, 72 hours. How it is done: The CellTiter-Glo® Luminescent Cell Viability Assay (Promega, G7573) was used to study the cellular potency of disclosed compounds herein. The cells were harvested during the logarithmic growth period and counted with hemocytometer. The DOHH2 cells were seeded at 1.6*10^4 in 90 ul DMEM medium supplemented with 10% fetal bovine serum (FBS) (as RS4;11 cells were seeded at 4000 in 90 ul RPMI-1640 medium with 10% FBS) per well in 96-well plates and treated with 10 ul of a serial dilution of compounds disclosed herein (maximum concentration and dilution ratio determined by the results of pre-experiment may vary) for 72 hours in a 5% CO2 incubator at 37° C. Cell viability was assessed according to the manufacturer's recommendations. After the plates return to the room temperature, 100 ul of CellTiter-Glo® reagent was added to 100 ul of cell culture. The mixture was agitated on an orbital shaker for 2 minutes or placed it at room temperature for 10 minutes to allow cell lysis and stabilization of luminescent signals. Luminescent signals were recorded using Envision 2104 instrument. And GI50 values were then calculated.
On the technique in general: ATP-based viability assays read luminescence as a measure of living cells.

Our source for the IC50 and GI50 values is patent US20240239792A1, “MODULATORS OF BCL-2 OR BCL-2/BCL-XL AND USES THEREOF” (APPICINE THERAPEUTICS (HK) LIMITED, priority 2021, published 2024).

As a reminder, the IC50 is the concentration at which inhibition is half-maximal. The GI50 is the concentration that inhibits growth by half. Lower therefore signals greater sensitivity of the cells.

T1 sequence (P10415 whole entry): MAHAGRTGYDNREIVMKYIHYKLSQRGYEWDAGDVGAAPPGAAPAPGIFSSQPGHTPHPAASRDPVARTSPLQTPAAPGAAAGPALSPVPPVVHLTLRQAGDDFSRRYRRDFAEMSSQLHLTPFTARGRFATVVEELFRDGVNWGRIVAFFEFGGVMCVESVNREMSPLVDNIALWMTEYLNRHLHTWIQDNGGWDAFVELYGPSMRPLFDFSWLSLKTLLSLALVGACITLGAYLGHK

`O=C(NS(=O)(=O)c1ccc(NCC2CCOCC2)c([N+](=O)[O-])c1)c1ccc(N2CC3(CCN(C4CCCc5ccccc54)C3)C2)cc1Oc1cnc2[nH]ccc2c1` (stereo not drawn) [Compound 91, 2-((1H-pyrrolo[2,3-b]pyridin-5-yl)oxy)-N-((3-nitro-4-(((tetrahydro-2H-pyran-4-yl)methyl)amino)phenyl)sulfonyl)-4-(6-(1,2,3,4-tetrahydronaphthalen-1-yl)-2,6-diazaspiro[3.4]octan-2-yl)benzamide]: the IC50 at BCL-2 was below 20 nM. For the same molecule, the concentration for 50% growth inhibition (GI50) in the assay on DOHH2 cells fell in the range of 500 to 5000 nM.
Consider `O=C(NS(=O)(=O)c1ccc(NCC2CCOCC2)c([N+](=O)[O-])c1)c1ccc(N2CC3(CCN(C4CCCc5ccccc54)CC3)C2)cc1Oc1cnc2[nH]ccc2c1` (stereo not drawn) [Compound 92, 2-((1H-pyrrolo[2,3-b]pyridin-5-yl)oxy)-N-((3-nitro-4-(((tetrahydro-2H-pyran-4-yl)methyl)amino)phenyl)sulfonyl)-4-(7-(1,2,3,4-tetrahydronaphthalen-1-yl)-2,7-diazaspiro[3.5]nonan-2-yl)benzamide], for which, on BCL-2, the IC50 was 20 to 200 nM. In the assay with DOHH2 cells, the GI50 is 500 to 5000 nM.
Regarding `O=C(NS(=O)(=O)c1ccc(NCC2CCOCC2)c([N+](=O)[O-])c1)c1ccc(N2CCC3(CC2)CN(C2CCCCc4ccccc42)C3)cc1Oc1cnc2[nH]ccc2c1` (stereo not drawn) [Compound 93, 2-((1H-pyrrolo[2,3-b]pyridin-5-yl)oxy)-N-((3-nitro-4-(((tetrahydro-2H-pyran-4-yl)methyl)amino)phenyl)sulfonyl)-4-(2-(6,7,8,9-tetrahydro-5H-benzo[7]annulen-5-yl)-2,7-diazaspiro[3.5]nonan-7-yl)benzamide], the concentration for half-maximal inhibition (IC50) on BCL-2 lay in the range of 20 to 200 nM. The molecule further displayed a 50% growth inhibitory concentration (GI50) in the assay on DOHH2 cells of 500 to 5000 nM.
Taken in the same sequence, the figures for `O=C(NS(=O)(=O)c1ccc(NCC2CCOCC2)c([N+](=O)[O-])c1)c1ccc(N2CC3(C2)CN(C2CCCCc4ccccc42)C3)cc1Oc1cnc2[nH]ccc2c1` (stereo not drawn) [Compound 95, 2-((1H-pyrrolo[2,3-b]pyridin-5-yl)oxy)-N-((3-nitro-4-(((tetrahydro-2H-pyran-4-yl)methyl)amino)phenyl)sulfonyl)-4-(6-(6,7,8,9-tetrahydro-5H-benzo[7]annulen-5-yl)-2,6-diazaspiro[3.3]heptan-2-yl)benzamide] were 20 to 200 nM and 500 to 5000 nM.
Consider `O=C(NS(=O)(=O)c1ccc(NCC2CCOCC2)c([N+](=O)[O-])c1)c1ccc(N2CC3(C2)CN(C2CCCc4ccccc42)C3)cc1Oc1cnc2[nH]ccc2c1` (stereo not drawn) [Compound 96, 2-((1H-pyrrolo[2,3-b]pyridin-5-yl)oxy)-N-((3-nitro-4-(((tetrahydro-2H-pyran-4-yl)methyl)amino)phenyl)sulfonyl)-4-(6-(1,2,3,4-tetrahydronaphthalen-1-yl)-2,6-diazaspiro[3.3]heptan-2-yl)benzamide], for which the IC50 at BCL-2 fell in the range of 20 to 200 nM. In the assay with DOHH2 cells, this molecule came in with a concentration for 50% growth inhibition (GI50) above 5000 nM.
As to `O=C(NS(=O)(=O)c1ccc(NCC2CCOCC2)c([N+](=O)[O-])c1)c1ccc(N2CC3(CCN(C4CCCCc5ccccc54)CC3)C2)cc1Oc1cnc2[nH]ccc2c1` (stereo not drawn) [Compound 97, 2-((1H-pyrrolo[2,3-b]pyridin-5-yl)oxy)-N-((3-nitro-4-(((tetrahydro-2H-pyran-4-yl)methyl)amino)phenyl)sulfonyl)-4-(7-(6,7,8,9-tetrahydro-5H-benzo[7]annulen-5-yl)-2,7-diazaspiro[3.5]nonan-2-yl)benzamide], at BCL-2, the 50% inhibitory concentration (IC50) is 20 to 200 nM. Moreover, the GI50 in the assay with DOHH2 cells fell in the range of 500 to 5000 nM.
As to `O=C(NS(=O)(=O)c1ccc(NCC2CCOCC2)c([N+](=O)[O-])c1)c1ccc(N2CC3(CCN(C4CCCCc5ccccc54)C3)C2)cc1Oc1cnc2[nH]ccc2c1` (stereo not drawn) [Compound 98, 2-((1H-pyrrolo[2,3-b]pyridin-5-yl)oxy)-N-((3-nitro-4-(((tetrahydro-2H-pyran-4-yl)methyl)amino)phenyl)sulfonyl)-4-(6-(6,7,8,9-tetrahydro-5H-benzo[7]annulen-5-yl)-2,6-diazaspiro[3.4]octan-2-yl)benzamide], the half-inhibitory concentration (IC50) on BCL-2 was 20 to 200 nM. The molecule further showed a concentration for 50% growth inhibition (GI50) in the assay on DOHH2 cells of 500 to 5000 nM.
In the same order, the values of `CC(C)(C)OC(=O)N1CC2CC1CC2CNc1ccc(S(=O)(=O)NC(=O)c2ccc(N3CCN([C@@H]4CCCCc5c(Cl)cccc54)CC3)cc2Oc2cnc3[nH]ccc3c2)cc1[N+](=O)[O-]` (stereo partly drawn) [Compound 103, tert-butyl 5-(((4-(N-(2-((1H-pyrrolo[2,3-b]pyridin-5-yl)oxy)-4-(4-((R)-1-chloro-6,7,8,9-tetrahydro-5H-benzo[7]annulen-5-yl)piperazin-1-yl)benzoyl)sulfamoyl)-2-nitrophenyl)amino)methyl)-2-azabicyclo[2.2.1]heptane-2-carboxylate] are below 20 nM and 50 to 500 nM.
Consider `O=C(NS(=O)(=O)c1ccc(NCC2CC3CC2CN3)c([N+](=O)[O-])c1)c1ccc(N2CCN([C@@H]3CCCCc4c(Cl)cccc43)CC2)cc1Oc1cnc2[nH]ccc2c1` (stereo partly drawn) [Compound 105, 2-((1H-pyrrolo[2,3-b]pyridin-5-yl)oxy)-N-((4-(((2-azabicyclo[2.2.1]heptan-5-yl)methyl)amino)-3-nitrophenyl)sulfonyl)-4-(4-((R)-1-chloro-6,7,8,9-tetrahydro-5H-benzo[7]annulen-5-yl)piperazin-1-yl)benzamide], for which the half-maximal inhibitory concentration (IC50) on BCL-2 was below 20 nM. This molecule also had a GI50 in the assay with DOHH2 cells of 50 to 500 nM.
Taken in the same sequence, the figures for `O=C(O)CCN1CCC2(CC1)CC(CNc1ccc(S(=O)(=O)NC(=O)c3ccc(N4CCN([C@@H]5CCCCc6c(Cl)cccc65)CC4)cc3Oc3cnc4[nH]ccc4c3)cc1[N+](=O)[O-])C2` [Compound 126, (R)-3-(2-(((4-(N-(2-((1H-pyrrolo[2,3-b]pyridin-5-yl)oxy)-4-(4-(1-chloro-6,7,8,9-tetrahydro-5H-benzo[7]annulen-5-yl)piperazin-1-yl)benzoyl)sulfamoyl)-2-nitrophenyl)amino)methyl)-7-azaspiro[3.5]nonan-7-yl)propanoic acid] were below 20 nM and below 50 nM.
In the case of `O=C(NS(=O)(=O)c1ccc(NCC2CC3(CCN(S(=O)(=O)C4CC4)CC3)C2)c([N+](=O)[O-])c1)c1ccc(N2CCN([C@@H]3CCCCc4c(Cl)cccc43)CC2)cc1Oc1cnc2[nH]ccc2c1` [Compound 127, (R)-2-((1H-pyrrolo[2,3-b]pyridin-5-yl)oxy)-4-(4-(1-chloro-6,7,8,9-tetrahydro-5H-benzo[7]annulen-5-y1)piperazin-1-yl)-N-((4-(((7-(cyclopropylsulfonyl)-7-azaspiro[3.5]nonan-2-yl)methyl)amino)-3-nitrophenyl)sulfonyl)benzamide], at BCL-2, the IC50 was below 20 nM. The molecule also gave a GI50 with DOHH2 cells below 50 nM.
With `CC(C)S(=O)(=O)N1CCC2(CC1)CC(CNc1ccc(S(=O)(=O)NC(=O)c3ccc(N4CCN([C@@H]5CCCCc6c(Cl)cccc65)CC4)cc3Oc3cnc4[nH]ccc4c3)cc1[N+](=O)[O-])C2` [Compound 128, (R)-2-((1H-pyrrolo[2,3-b]pyridin-5-yl)oxy)-4-(4-(1-chloro-6,7,8,9-tetrahydro-5H-benzo[7]annulen-5-yl)piperazin-1-yl)-N-((4-(((7-(isopropylsulfony1)-7-azaspiro[3.5]nonan-2-yl)methyl)amino)-3-nitrophenyl)sulfony1)benzamide], the half-maximal inhibitory concentration (IC50) on BCL-2 is below 20 nM. The molecule also gave a GI50 with DOHH2 cells below 50 nM.
For the molecule `O=C(NS(=O)(=O)c1ccc(NCC2CC3(CCCCC3)C2)c([N+](=O)[O-])c1)c1ccc(N2CCN([C@@H]3CCCCc4c(Cl)cccc43)CC2)cc1Oc1cnc2[nH]ccc2c1` [Compound 132, (R)-2-((1H-pyrrolo[2,3-b]pyridin-5-yl)oxy)-4-(4-(1-chloro-6,7,8,9-tetrahydro-5H-benzo[7]annulen-5-yl)piperazin-1-yl)-N-((3-nitro-4-((spiro[3.5]nonan-2-ylmethyl)amino)phenyl)sulfonyl)benzamide], the IC50 on BCL-2 is below 20 nM. Also, in the assay on DOHH2 cells, the GI50 fell in the range of 50 to 500 nM.
For the molecule `O=C(NS(=O)(=O)c1ccc(NCC2CC3(CCC4(CC3)OCCO4)C2)c([N+](=O)[O-])c1)c1ccc(N2CCN([C@@H]3CCCCc4c(Cl)cccc43)CC2)cc1Oc1cnc2[nH]ccc2c1` [Compound 133, (R)-2-((1H-pyrrolo[2,3-b]pyridin-5-yl)oxy)-N-((4-(((8,11-dioxadispiro[3.2.47.24]tridecan-2-yl)methyl)amino)-3-nitrophenyl)sulfony1)-4-(4-(1-chloro-6,7,8,9-tetrahydro-5H-benzo[7]annulen-5-yl)piperazin-1-yl)benzamide], the half-maximal inhibitory concentration (IC50) at BCL-2 was below 20 nM. Further, the GI50 with DOHH2 cells was below 50 nM.
As for `O=C(NS(=O)(=O)c1ccc(NCC2CC3(CCC(O)CC3)C2)c([N+](=O)[O-])c1)c1ccc(N2CCN([C@@H]3CCCCc4c(Cl)cccc43)CC2)cc1Oc1cnc2[nH]ccc2c1` (stereo partly drawn) [Compound 134, (R)-2-((1H-pyrrolo[2,3-b]pyridin-5-yl)oxy)-4-(4-(1-chloro-6,7,8,9-tetrahydro-5H-benzo[7]annulen-5-yl)piperazin-1-yl)-N-((4-(((7-hydroxyspiro[3.5]nonan-2-yl)methyl)amino)-3-nitrophenyl)sulfonyl)benzamide], the IC50 on BCL-2 is below 20 nM. This molecule displayed a 50% growth inhibitory concentration (GI50) in the assay on DOHH2 cells below 50 nM.
